Patent US9296741B2, “Bromodomain inhibitors” (priority 2012, dated 2016)

Key:
[1] = Rat liver microsome stability assay; assay type: in vitro ADME; settings: rat liver microsomes (male Sprague-Dawley), 0.5 μM test compound, pH 7.4, 37° C.; for half-life at 0.5 μM: 0.25 mg/mL microsomal protein, read-out: Stability in rat liver microsomes (t1/2 in minutes); for Stability in rat liver microsomes (t1/2 in minutes): […] microsomal protein
[2] = target: human BRD4 second bromodomain (BDII_E352-M457) (Homo sapiens (Human), UniProt O60885); assay: TR-FRET bromodomain binding assay, BRD4 second bromodomain
[3] = Human liver microsome stability assay; assay type: in vitro ADME; settings: both sexes, human, microsomes, pH 7.4
[4] = test system: breast cancer cell line MX-1; assay: MX-1 cell line proliferation assay; assay type: cell-based, human; settings: Homo sapiens, MX1, 72 h; MX-1 cells, 3-day proliferation, Cell Titer Glo; read-out: Cellular proliferation: EC50
[5] = target: human BRD4 first bromodomain (BDI_K57-E168) (Homo sapiens (Human), UniProt O60885); assay: TR-FRET bromodomain binding assay, BRD4 first bromodomain
[6] = Mouse liver microsome stability assay; assay type: in vitro ADME; settings: male, CD1, mouse, microsomes, pH 7.4

half-life at 0.5 μM [1]	Ki [2]	half-life at 0.5 μM [3]	EC50 [4]	Ki [5]	half-life at 0.5 μM [6]	Stability in rat liver microsomes (t1/2 in minutes) [1]	Structure (SMILES)
13 min	1.1 nM	24 min	16 nM	0.63 nM	33 min	–	Cn1cc(-c2cc(S(N)(=O)=O)cnc2NC2CCCCC2)c2cc[nH]c2c1=O [Example 96, 6-(cyclohexylamino)-5-(6-methyl-7-oxo-6,7-dihydro-1H-pyrrolo[2,3-c]pyridin-4-yl)pyridine-3-sulfonamide]
> 120 min	20.9 nM	> 120 min	114 nM	11.3 nM	33 min	–	Cn1cc(-c2cc(S(C)(=O)=O)ccc2Oc2ccc(C#N)cc2)c2cc[nH]c2c1=O [Example 156, 4-[2-(6-methyl-7-oxo-6,7-dihydro-1H-pyrrolo[2,3-c]pyridin-4-yl)-4-(methylsulfonyl)phenoxy]benzonitrile]
118 min	22.8 nM	> 120 min	77.7 nM	11.6 nM	95 min	–	Cn1cc(-c2cc(S(C)(=O)=O)ccc2OCC2(F)COC2)c2cc[nH]c2c1=O [Example 206, 4-{2-[(3-fluorooxetan-3-yl)methoxy]-5-(methylsulfonyl)phenyl}-6-methyl-1,6-dihydro-7H-pyrrolo[2,3-c]pyridin-7-one]
10 min	4.8 nM	51 min	105 nM	24.6 nM	22 min	–	Cn1cc(-c2cc(S(C)(=O)=O)ccc2Oc2ccccc2Cl)c2cc[nH]c2c1=O [Example 152, 4-[2-(2-chlorophenoxy)-5-(methylsulfonyl)phenyl]-6-methyl-1,6-dihydro-7H-pyrrolo[2,3-c]pyridin-7-one]
82 min	15.5 nM	20 min	42.1 nM	17.9 nM	13 min	–	CCOC(=O)N1CCC(Oc2ccc(S(=O)(=O)CC)cc2-c2cn(C)c(=O)c3[nH]ccc23)CC1 [Example 301, ethyl 4-[4-(ethylsulfonyl)-2-(6-methyl-7-oxo-6,7-dihydro-1H-pyrrolo[2,3-c]pyridin-4-yl)phenoxy]piperidine-1-carboxylate]
8 min	7 nM	6 min	7.6 nM	6.9 nM	5 min	–	Cn1cc(-c2cc(S(C)(=O)=O)ccc2OCC2CCCCC2)c2cc[nH]c2c1=O [Example 224, 4-[2-(cyclohexylmethoxy)-5-(methylsulfonyl)phenyl]-6-methyl-1,6-dihydro-7H-pyrrolo[2,3-c]pyridin-7-one]
21 min	7.3 nM	15 min	137 nM	43.5 nM	2 min	–	Cn1cc(-c2cc(C(=O)N3CCN(C(=O)c4ccco4)CC3)ccc2Oc2ccc(F)cc2F)c2cc[nH]c2c1=O [Example 134, 4-[2-(2,4-difluorophenoxy)-5-{[4-(furan-2-ylcarbonyl)piperazin-1-yl]carbonyl}phenyl]-6-methyl-1,6-dihydro-7H-pyrrolo[2,3-c]pyridin-7-one]
66 min	153 nM	76 min	1100 nM	223 nM	30 min	–	CCS(=O)(=O)Nc1ccc(Oc2ccc(F)cc2F)c(-c2cn(C)c(=O)c3[nH]cc(CN4CCN(C)CC4)c23)c1 [Example 351, N-[4-(2,4-difluorophenoxy)-3-{6-methyl-3-[(4-methylpiperazin-1-yl)methyl]-7-oxo-6,7-dihydro-1H-pyrrolo[2,3-c]pyridin-4-yl}phenyl]ethanesulfonamide]
113 min	94 nM	> 120 min	332 nM	22.8 nM	27 min	–	CCS(=O)(=O)c1ccc(OC2CCN(C)CC2)c(-c2cn(C)c(=O)c3[nH]ccc23)c1 [Example 170, 4-{5-(ethylsulfonyl)-2-[(1-methylpiperidin-4-yl)oxy]phenyl}-6-methyl-1,6-dihydro-7H-pyrrolo[2,3-c]pyridin-7-one]
–	0.51 nM	13.6 min	29.8 nM	2.8 nM	10 min	1 min	Cn1cc(-c2cc(CN3CCCS3(=O)=O)ccc2Oc2ccccc2)c2cc[nH]c2c1=O [Example 41, 4-{5-[(1,1-dioxido-1,2-thiazolidin-2-yl)methyl]-2-phenoxyphenyl}-6-methyl-1,6-dihydro-7H-pyrrolo[2,3-c]pyridin-7-one]
64 min	6.6 nM	68 min	14.2 nM	0.75 nM	34 min	–	Cn1cc(-c2cc(NS(C)(=O)=O)ccc2OC2CCCOC2)c2cc[nH]c2c1=O (stereo not drawn) [Example 60, N-[3-(6-methyl-7-oxo-6,7-dihydro-1H-pyrrolo[2,3-c]pyridin-4-yl)-4-(tetrahydro-2H-pyran-3-yloxy)phenyl]methanesulfonamide]
2 min	77.3 nM	12 min	> 3000 nM	119 nM	4 min	–	Cc1ccc(S(=O)(=O)n2ccc3c(-c4cc(NS(C)(=O)=O)ccc4Oc4ccccc4)cn(C)c(=O)c32)cc1 [Example 7, N-(3-{6-methyl-1-[(4-methylphenyl)sulfonyl]-7-oxo-6,7-dihydro-1H-pyrrolo[2,3-c]pyridin-4-yl}-4-phenoxyphenyl)methanesulfonamide]
6 min	236 nM	33.7 min	828 nM	286 nM	27 min	–	Cn1cc(-c2cc(CCO)ccc2OCc2ccccc2)c2cc[nH]c2c1=O [Example 44, 4-[2-(benzyloxy)-5-(2-hydroxyethyl)phenyl]-6-methyl-1,6-dihydro-7H-pyrrolo[2,3-c]pyridin-7-one]
115 min	3.6 nM	88 min	16.8 nM	6.7 nM	83 min	–	CCS(=O)(=O)c1ccc(Oc2cccc(CO)c2)c(-c2cn(C)c(=O)c3[nH]ccc23)c1 [Example 317, 4-{5-(ethylsulfonyl)-2-[3-(hydroxymethyl)phenoxy]phenyl}-6-methyl-1,6-dihydro-7H-pyrrolo[2,3-c]pyridin-7-one]
5 min	93.8 nM	6 min	341 nM	56.1 nM	6 min	–	COC(=O)c1cc2c(-c3ccccc3Oc3ccccc3)cn(C)c(=O)c2[nH]1 [Example 67, methyl 6-methyl-7-oxo-4-(2-phenoxyphenyl)-6,7-dihydro-1H-pyrrolo[2,3-c]pyridine-2-carboxylate]
24 min	5 nM	63 min	6.1 nM	6.6 nM	43 min	–	CC(C)COc1ccc(S(C)(=O)=O)cc1-c1cn(C)c(=O)c2[nH]ccc12 [Example 221, 6-methyl-4-[2-(2-methylpropoxy)-5-(methylsulfonyl)phenyl]-1,6-dihydro-7H-pyrrolo[2,3-c]pyridin-7-one]
110 min	15.2 nM	> 120 min	125 nM	5.4 nM	49 min	–	CCS(=O)(=O)Nc1ccc(Oc2cncnc2)c(-c2cn(C)c(=O)c3[nH]ccc23)c1 [Example 141, N-[3-(6-methyl-7-oxo-6,7-dihydro-1H-pyrrolo[2,3-c]pyridin-4-yl)-4-(pyrimidin-5-yloxy)phenyl]ethanesulfonamide]
–	8.1 nM	> 120 min	45.1 nM	2.1 nM	4 min	1 min	Cn1cc(-c2cc(NS(C)(=O)=O)ccc2OC2CCCC2)c2cc[nH]c2c1=O [Example 58, N-[4-(cyclopentyloxy)-3-(6-methyl-7-oxo-6,7-dihydro-1H-pyrrolo[2,3-c]pyridin-4-yl)phenyl]methanesulfonamide]
5 min	16 nM	4 min	213 nM	96.2 nM	2 min	–	CCS(=O)(=O)N(CCC(F)(F)F)c1ccc(Oc2ccc(F)cc2F)c(-c2cn(C)c(=O)c3[nH]ccc23)c1 [Example 346, N-[4-(2,4-difluorophenoxy)-3-(6-methyl-7-oxo-6,7-dihydro-1H-pyrrolo[2,3-c]pyridin-4-yl)phenyl]-N-(3,3,3-trifluoropropyl)ethanesulfonamide]
26 min	6.7 nM	> 120 min	71.8 nM	1.1 nM	> 120 min	–	Cn1cc(-c2cc(NS(C)(=O)=O)ccc2OC2CCOCC2)c2cc[nH]c2c1=O [Example 29, N-[3-(6-methyl-7-oxo-6,7-dihydro-1H-pyrrolo[2,3-c]pyridin-4-yl)-4-(tetrahydro-2H-pyran-4-yloxy)phenyl]methanesulfonamide]
91 min	12.4 nM	42 min	76.5 nM	5.9 nM	69.8 min	–	CCOC(=O)N1CCC(Oc2ccc(S(C)(=O)=O)cc2-c2cn(C)c(=O)c3[nH]ccc23)CC1 [Example 258, ethyl 4-[2-(6-methyl-7-oxo-6,7-dihydro-1H-pyrrolo[2,3-c]pyridin-4-yl)-4-(methylsulfonyl)phenoxy]piperidine-1-carboxylate]
